Data on one molecule can be found in PMC9736275 (International Journal of Molecular Sciences, 2022).

Each structure is given as a SMILES string.

The target in the assay is T1, ATA-Gze (Fusarium graminearum, UniProt I1RDQ2).
T1 construct: gene FGRAMPH1_01T04291
T1 sequence (I1RDQ2 1-325): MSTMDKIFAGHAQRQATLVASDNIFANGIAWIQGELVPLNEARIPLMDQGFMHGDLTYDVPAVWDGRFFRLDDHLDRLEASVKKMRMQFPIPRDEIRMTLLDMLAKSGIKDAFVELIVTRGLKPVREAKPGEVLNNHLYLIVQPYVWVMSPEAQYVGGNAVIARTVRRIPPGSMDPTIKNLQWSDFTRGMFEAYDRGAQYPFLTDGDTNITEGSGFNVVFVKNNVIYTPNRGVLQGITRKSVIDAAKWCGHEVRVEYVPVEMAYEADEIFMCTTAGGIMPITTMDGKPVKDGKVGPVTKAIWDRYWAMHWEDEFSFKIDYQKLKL

On to `C[C@@H](N)c1ccccc1` [(R)-1-phenylethylamine], for which the Km entry is “The kinetic parameters are shown in Table S3 and Figure S1”.
